Measurements published in publication PMC11237035, “Glutathione determines chronic myeloid leukemia vulnerability to an inhibitor of CMPK and TMPK” (Communications Biology, 2024).
Values joined by “and” are separate entries in the source; they are usually repeats but may differ in a detail not shown here. Equal entries are not always repeated.

How the values were obtained:
WT-Bcr-Abl-32D cells [1] = assay: CCK-8 cell viability assay, WT-Bcr-Abl-32D cells; type: cell-based, mouse; details: WT-Bcr-Abl, single replicates
untransformed 32D cells [2] = assay: CCK-8 cell viability assay, untransformed 32D cells; type: cell-based, mouse; details: for viability (0 = 100): Untransformed; for sensitivity compared among WT-, T315I-Bcr-Abl-32D and untransformed 32D progenitor cells: viability assays
Experimental: After 72 h, viability assays were performed.
3 independent experiments. Asterisks denote ***p<0.001 from non-paired two-tailed

T315I-Bcr-Abl-32D cells [3] = assay: CCK-8 cell viability assay, T315I-Bcr-Abl-32D cells; type: cell-based, mouse
WT-Bcr-Abl-32D cells [4] = assay: Western blot of tyrosine phosphorylation and Bcr-Abl downstream signaling, WT-Bcr-Abl-32D cells; type: cell-based, mouse
Description: (§1) Supplementary Figure 1. Bcr-Abl-activated downstream signaling in WT- and
(§2) The comparison of Bcr-Abl downstream signaling (Akt, mTorC1, and Stat5) in WT- […]

untransformed 32D cells [5] = assay: Western blot of tyrosine phosphorylation, untransformed 32D cells; type: cell-based, mouse; details: 32D progenitor cells, 2 μM, 4 h, pY99 Western blot
T315I-Bcr-Abl-32D cells [6] = assay: Western blot of tyrosine phosphorylation and Bcr-Abl downstream signaling, T315I-Bcr-Abl-32D cells; type: cell-based, mouse
Description: as §1, §2

hTMPK = target: T1, hTMPK (Homo sapiens, UniProt P23919); assay: biochemical
T1 sequence (P23919 1-212): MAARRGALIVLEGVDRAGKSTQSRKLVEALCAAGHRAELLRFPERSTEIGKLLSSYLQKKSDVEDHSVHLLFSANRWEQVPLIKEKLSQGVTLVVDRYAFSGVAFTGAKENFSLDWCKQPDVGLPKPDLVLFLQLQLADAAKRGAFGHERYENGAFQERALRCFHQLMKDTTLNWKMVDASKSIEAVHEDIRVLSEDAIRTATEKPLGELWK
Experimental: (§6) Activity assay was measured using the spectrophotometric method by coupling ADP formation to NADH oxidation catalyzed by pyruvate kinase and lactate dehydrogenase as described previously[20]. Each reaction contained 0.4 μg TMPK or 0.3 μg CMPK was incubated at 25 °C followed by using Tecan Spark 10 microplate reader to detect the change in NADH measurement at 340 nm absorption according to the manufacturer’s instructions.

hCMPK = target: T2, hCMPK (Homo sapiens, UniProt P30085); assay: biochemical
T2 sequence (P30085 1-196): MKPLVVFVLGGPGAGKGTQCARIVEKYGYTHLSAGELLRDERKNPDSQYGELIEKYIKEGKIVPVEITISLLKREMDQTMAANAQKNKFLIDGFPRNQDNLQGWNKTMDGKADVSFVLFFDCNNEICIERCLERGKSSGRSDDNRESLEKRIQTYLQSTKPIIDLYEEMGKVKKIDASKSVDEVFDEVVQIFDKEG
Experimental: as §6

T315I-Bcr-Abl-32D cells [7] = assay: DNA fiber assay (replication speed), T315I-Bcr-Abl-32D cells; type: cell-based, mouse; details: T315I-Bcr-Abl-32D cells, BSO 12.5 μM, 16 h
Experimental: (§3) The workflow of DNA fiber labeling (Right). The representative labeled fibers are shown below. Replication speed in kb/min was calculated by the measured length of IdU (green) linking to CldU (red) in μm with a conversion factor of 0.34 μm/kb divided by the duration of the labeling pulse (Scale bar = 10 μm). The gray triangle indicates the boundary between red fluorescence and green fluorescence. c The measurement of intracellular ROS by the fluorescence intensity of CellROX Green staining using flow cytometric analysis. Data are presented as mean intensity relative to untransformed 32D cells. d, e The measurement of GSSG and GSH. […] Schematic illustration of the metabolic path U-^13C glutamine incorporation into the GSH (left). Gray and white circles indicate ^13C-label, and unlabeled ^12C, respectively. The traced isotopologue abundance of GSH is shown (right).
(§4) The DNA fiber assay was performed as described previously. Briefly, cells were sequentially treated with the medium containing 25 μM of CldU (Sigma-Aldrich, C6891) and then 250 μM of IdU (Sigma-Aldrich, I7125) for 20 min. After washing, cells were suspended in PBS (1000 cells/ μL). 2 μL of cell suspension was spotted on slides. […] The lengths of red- and green-labeled fibers were determined by FluoView3.0 software (Olympus).

T315I-Bcr-Abl-32D cells [8] = assay: GSH/GSSG-Glo measurement, T315I-Bcr-Abl-32D cells; type: cell-based, mouse
Description: (§5) The GSH/GSSG-Glo™ Assay Kit (Promega, V6611) was used for luminescent-based measurement of cellular GSH and GSSG by Tecan Spark 10 microplate reader.

WT-Bcr-Abl-32D cells [9] = assay: GSH/GSSG-Glo measurement, WT-Bcr-Abl-32D cells; type: cell-based, mouse
Description: as §5

WT-Bcr-Abl-32D cells [10] = assay: DNA fiber assay (replication speed), WT-Bcr-Abl-32D cells; type: cell-based, mouse; details: NAC 1 mM, 16 h
Experimental: as §3, §4

O=c1[nH]cc(F)c(=O)[nH]1 [Compound 5-FU, 5-Fluorouracil]
viability (0 = 100) (WT-Bcr-Abl-32D cells [1]; 5-FU 50 nM): 107.177 and 94.9972 and 84.194 and 79.9956 | viability (0 = 100) (WT-Bcr-Abl-32D cells [1]; 5-FU 100 nM): 65.5177 and 99.8323 and 74.733 and 69.6887 | viability (0 = 100) (WT-Bcr-Abl-32D cells [1]; 5-FU 200 nM): 39.9892 and 67.384 and 54.7054 and 48.7266 | viability (0 = 100) (WT-Bcr-Abl-32D cells [1]; 5-FU 400 nM): 24.7745 and 56.1347 and 30.6822 and 26.6217 | viability (0 = 100) (untransformed 32D cells [2]; 5-FU 50 nM, single replicates): 73.4167 and 117.13 and 106.182 and 85.6469 | viability (0 = 100) (untransformed 32D cells [2]; 5-FU 100 nM, single replicates): 72.9576 and 93.7766 and 105.148 and 51.3899 | viability (0 = 100) (untransformed 32D cells [2]; 5-FU 200 nM, single replicates): 35.4417 and 92.003 and 84.6699 and 48.1556 | viability (0 = 100) (untransformed 32D cells [2]; 5-FU 400 nM, single replicates): 6.096 and 36.2787 and 21.177 and 24.9913 | sensitivity compared among WT-, T315I-Bcr-Abl-32D and untransformed 32D progenitor cells (untransformed 32D cells [2]): similar | viability at 0.05 µM (T315I-Bcr-Abl-32D cells [3]; Mus musculus, T315I-Bcr-Abl, 5-FU 50 nM, single replicates, read-out: viability (0 = 100)): 84.6% | viability at 0.4 µM (T315I-Bcr-Abl-32D cells [3]; Mus musculus, T315I-Bcr-Abl, 5-FU 400 nM, single replicates, read-out: viability (0 = 100)): 15% | viability (0 = 100) (T315I-Bcr-Abl-32D cells [3]; T315I-Bcr-Abl, 5-FU 50 nM, single replicates): 83.5736 and 80.5085 and 76.4058 | viability (0 = 100) (T315I-Bcr-Abl-32D cells [3]; T315I-Bcr-Abl, 5-FU 100 nM, single replicates): 62.3323 and 96.9038 and 91.1488 and 80.2051 | viability (0 = 100) (T315I-Bcr-Abl-32D cells [3]; T315I-Bcr-Abl, 5-FU 200 nM, single replicates): 35.7891 and 57.1142 and 42.6177 and 58.9854 | viability (0 = 100) (T315I-Bcr-Abl-32D cells [3]; T315I-Bcr-Abl, 5-FU 400 nM, single replicates): 14.7128 and 7.825 and 11.0955

Cc1ccc(C(=O)Nc2ccc(CN3CCN(C)CC3)c(C(F)(F)F)c2)cc1C#Cc1cnc2cccnn12 [ponatinib]
Bcr-Abl downstream signals (pAkt-S473, pS6K-T389, pStat5-Y694) (WT-Bcr-Abl-32D cells [4]): abolished these signals | level of overall tyrosine phosphorylation (WT-Bcr-Abl-32D cells [4]): reduced | basal level of tyrosine phosphorylation (untransformed 32D cells [5]): also reduced | Bcr-Abl downstream signals (pAkt-S473, pS6K-T389, pStat5-Y694) (T315I-Bcr-Abl-32D cells [6]): abolished these signals | level of overall tyrosine phosphorylation (T315I-Bcr-Abl-32D cells [6]): reduced

CCOC(=O)N1CCN(C(=O)Cn2sc3nc(C)cc(C)c3c2=O)CC1 [YMU1]
IC50 (hTMPK): 720 nM | IC50 (hCMPK): 1800 nM

CCCCS(=N)(=O)CCC(N)C(=O)O (stereo not shown) [BSO, buthionine sulphoximine]
lengths of replication tracks (T315I-Bcr-Abl-32D cells [7]): reduced | viability (vehicle, 0 = 100) (untransformed 32D cells [2]; 32D cells, BSO 12.5 μM alone (JMF4073 0), single replicates): 83.2384 and 115 and 94.5481 | GSH% (T315I-Bcr-Abl-32D cells [8]; Figure 5c, T315I-Bcr-Abl, BSO vs NT = 100, single replicates): 10.69% and 9.7% and 22.3% | cellular level of GSH (T315I-Bcr-Abl-32D cells [8]; T315I-Bcr-Abl-32D cells, BSO 12.5 μM, 16 h): reduced | cell viability (% of NT, 0 JMF4073), Figure 5e (T315I-Bcr-Abl-32D cells [3]; T315I, BSO alone (JMF4073 0), single replicates): 99.4456 and 92 and 86.6884 | growth of cells, BSO alone (T315I-Bcr-Abl-32D cells [3]; T315I-Bcr-Abl cells, BSO treatment alone): did not suppress the growth

Nc1ccn([C@@H]2O[C@H](CO)[C@@H](O)[C@@H]2O)c(=O)n1 [ara-C, cytosine arabinoside]
viability (0 = 100) (WT-Bcr-Abl-32D cells [1]; AraC 0.25 μM): 45.2109 and 73.8346 and 101.332 | viability (0 = 100) (WT-Bcr-Abl-32D cells [1]; AraC 0.5 μM): 24.4529 and 41.8769 and 43.1257 | viability (0 = 100) (WT-Bcr-Abl-32D cells [1]; AraC 1 μM): 7.238 and 10.5227 and 12.1803 | viability (0 = 100) (WT-Bcr-Abl-32D cells [1]; AraC 2 μM): 1.535 and 1.964 and 2.059 | viability (0 = 100) (untransformed 32D cells [2]; AraC 0.25 μM, single replicates): 80.5922 and 25.4877 and 20.7295 | viability (0 = 100) (untransformed 32D cells [2]; AraC 0.5 μM, single replicates): 32.0177 and 10.1455 and 8.811 | viability (0 = 100) (untransformed 32D cells [2]; AraC 1 μM, single replicates): 12.3749 and 4.297 and 2.7153 | viability (0 = 100) (untransformed 32D cells [2]; AraC 2 μM, single replicates): 4.929 and -0.8077 and -0.4748 | sensitivity compared among WT-, T315I-Bcr-Abl-32D and untransformed 32D progenitor cells (untransformed 32D cells [2]): similar | viability (0 = 100) (T315I-Bcr-Abl-32D cells [3]; T315I-Bcr-Abl, AraC 0.25 μM, single replicates): 91.0147 and 59.6875 and 56.2982 | viability (0 = 100) (T315I-Bcr-Abl-32D cells [3]; T315I-Bcr-Abl, AraC 0.5 μM, single replicates): 23.443 and 24.5051 and 17.9316 | viability (0 = 100) (T315I-Bcr-Abl-32D cells [3]; T315I-Bcr-Abl, AraC 1 μM, single replicates): 4.479 and 5.149 and 3.231 | viability (0 = 100) (T315I-Bcr-Abl-32D cells [3]; T315I-Bcr-Abl, AraC 2 μM, single replicates): 0.8258 and 1.3128 and 0.8788

CC(C)(C)OC(=O)N1CCN(C(=O)Cn2sc3ccccc3c2=O)CC1 [JMF2977]
IC50 (hTMPK): 290 nM

CC(=O)N[C@@H](CS)C(=O)O [NAC, N-Acetyl-Cysteine]
cell viability (% of NT vehicle), Figure 5h (WT-Bcr-Abl-32D cells [1]; NAC with vehicle): 96.5592 and 69.512 and 104.601 | GSH% (WT-Bcr-Abl-32D cells [9]; Figure 5f, WT-Bcr-Abl, NAC vs NT = 100, single replicates): 161.382% and 219.818% and 187.248% and 315.164% | cellular GSH level (WT-Bcr-Abl-32D cells [9]; WT-Bcr-Abl-32D cells, NAC 1 mM, 16 h): increased the cellular GSH level | lengths of replication tracks (WT-Bcr-Abl-32D cells [10]): increased lengths of replication tracks
